Key:
[1] = biological target: GDP-bound HRAS wild-type protein (Homo sapiens, UniProt P01112); experiment: Binding to HRAS by surface plasmon resonance (SPR), Single Cycle Kinetics; conditions: KD ratio, GDP-bound HRAS wild-type vs GDP-bound KRAS wild-type, SPR
[2] = biological target: GDP-bound NRAS wild-type protein (Homo sapiens, UniProt P01111); experiment: Binding to NRAS by surface plasmon resonance (SPR), Single Cycle Kinetics; conditions: KD ratio, GDP-bound NRAS wild-type vs GDP-bound KRAS wild-type, SPR
Chain of GDP-bound NRAS wild-type protein (P01111 whole entry): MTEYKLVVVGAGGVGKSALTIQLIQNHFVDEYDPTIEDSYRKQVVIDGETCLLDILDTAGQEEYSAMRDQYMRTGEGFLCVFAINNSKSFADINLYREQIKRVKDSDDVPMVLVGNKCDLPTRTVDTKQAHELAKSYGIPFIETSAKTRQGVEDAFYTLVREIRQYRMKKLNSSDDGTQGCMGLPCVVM

Chain of GDP-bound HRAS wild-type protein (P01112 whole entry): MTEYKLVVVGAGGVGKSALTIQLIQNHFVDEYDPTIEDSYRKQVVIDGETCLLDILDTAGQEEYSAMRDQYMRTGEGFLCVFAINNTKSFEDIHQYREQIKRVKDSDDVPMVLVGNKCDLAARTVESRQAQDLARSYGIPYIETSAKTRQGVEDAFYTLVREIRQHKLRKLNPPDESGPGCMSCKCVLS

CC[C@H](C)[C@@H]1NC(=O)[C@H](C2CCC2)N(C)C(=O)C[C@@H](C(=O)N(C)CC)N(C)C(=O)[C@H](C2CCCC2)N(C)C(=O)C2(CC(C)(C)C2)NC(=O)[C@@H]2C[C@H](C)CN2C(=O)[C@H](CCc2ccc(C(F)(F)F)c(OC)c2)NC(=O)CN(C)C(=O)[C@H](Cc2ccc(C(F)(F)F)cc2)N2CC/C=C\C[C@@H](C2=O)N(C)C(=O)CN(C)C1=O [PP2009]
HRAS/KRAS (ratio of KD value for HRAS to KD value for KRAS) [1]: A (a compound having 10 or more and less than 20 is denoted as A)
NRAS/KRAS (ratio of KD value for NRAS to KD value for KRAS) [2]: A (a compound having 10 or more and less than 20 is denoted as A)

CCCN(C)C(=O)[C@@H]1CC(=O)N(C)[C@@H](CC(F)F)C(=O)N[C@@H]([C@@H](C)CC)C(=O)N(C)CC(=O)N(C)[C@H]2C/C=C\CCN(C2=O)[C@@H](Cc2ccc(C(F)(F)F)cc2)C(=O)N(C)CC(=O)N[C@@H](CCc2ccc(C(F)(F)F)c(OC)c2)C(=O)N2C[C@H](OCC)C[C@H]2C(=O)NC2(CC(C)(C)C2)C(=O)N(C)[C@@H](C2CCCC2)C(=O)N1C [PP2010]
HRAS/KRAS (ratio of KD value for HRAS to KD value for KRAS) [1]: B (a compound having 3 or more and less than 10 is denoted as B)
NRAS/KRAS (ratio of KD value for NRAS to KD value for KRAS) [2]: A (a compound having 10 or more and less than 20 is denoted as A)

CC[C@H](C)[C@@H]1NC(=O)[C@H](C2CCC2)N(C)C(=O)C[C@@H](C(=O)N(C)C)N(C)C(=O)[C@H](C2CCCC2)N(C)C(=O)C2(CC(C)(C)C2)NC(=O)[C@@H]2C[C@H](C)CN2C(=O)[C@H](CCc2ccc(C(F)(F)F)c(OC)c2)NC(=O)CN(C)C(=O)[C@H](Cc2ccc(C(F)(F)F)cc2)N2CC/C=C\C[C@@H](C2=O)N(C)C(=O)CN(C)C1=O [PP2011]
HRAS/KRAS (ratio of KD value for HRAS to KD value for KRAS) [1]: A (a compound having 10 or more and less than 20 is denoted as A)
NRAS/KRAS (ratio of KD value for NRAS to KD value for KRAS) [2]: A (a compound having 10 or more and less than 20 is denoted as A)

CCCN(C)C(=O)[C@@H]1CC(=O)N(C)[C@@H](COCC)C(=O)N[C@@H]([C@@H](C)CC)C(=O)N(C)CC(=O)N(C)[C@H]2C/C=C\CCN(C2=O)[C@@H](Cc2ccc(C(F)(F)F)cc2)C(=O)N(C)CC(=O)N[C@@H](CCc2ccc(C(F)(F)F)c(OC)c2)C(=O)N2C[C@H](OCC)C[C@H]2C(=O)NC2(CC(C)(C)C2)C(=O)N(C)[C@@H](C2CCCC2)C(=O)N1C [PP2012]
HRAS/KRAS (ratio of KD value for HRAS to KD value for KRAS) [1]: A (a compound having 10 or more and less than 20 is denoted as A)
NRAS/KRAS (ratio of KD value for NRAS to KD value for KRAS) [2]: AA (a compound having 20 or more is denoted as AA)

CCCN(C)C(=O)[C@@H]1CC(=O)N(C)[C@@H](CC(F)F)C(=O)N[C@@H]([C@@H](C)CC)C(=O)N(C)CC(=O)N(C)[C@H]2C/C=C\CCN(C2=O)[C@@H](Cc2ccc(C(F)(F)F)cc2)C(=O)N(C)CC(=O)N[C@@H](CCc2ccc(C(F)(F)F)c(OC)c2)C(=O)N2C[C@H](OCC)C[C@H]2C(=O)NC2(CCC2)C(=O)N(C)[C@@H](C2CCCC2)C(=O)N1C [PP2013]
HRAS/KRAS (ratio of KD value for HRAS to KD value for KRAS) [1]: B (a compound having 3 or more and less than 10 is denoted as B)
NRAS/KRAS (ratio of KD value for NRAS to KD value for KRAS) [2]: A (a compound having 10 or more and less than 20 is denoted as A)

CCOC[C@H]1C(=O)N[C@@H]([C@@H](C)CC)C(=O)N(C)CC(=O)N(C)[C@H]2C/C=C\CCN(C2=O)[C@@H](Cc2ccc(C(F)(F)F)cc2)C(=O)N(C)CC(=O)N[C@@H](CCc2ccc(C(F)(F)F)c(OC)c2)C(=O)N2C[C@H](OCC)C[C@H]2C(=O)NC2(CC(C)(C)C2)C(=O)N(C)[C@@H](C2CCCC2)C(=O)N(C)[C@H](C(=O)N(C)CC)CC(=O)N1C [PP2014]
HRAS/KRAS (ratio of KD value for HRAS to KD value for KRAS) [1]: A (a compound having 10 or more and less than 20 is denoted as A)
NRAS/KRAS (ratio of KD value for NRAS to KD value for KRAS) [2]: A (a compound having 10 or more and less than 20 is denoted as A)

CCCN(C)C(=O)[C@@H]1CC(=O)N(C)[C@@H](COCC)C(=O)N[C@@H]([C@@H](C)CC)C(=O)N(C)CC(=O)N(C)[C@H]2C/C=C\CCN(C2=O)[C@@H](Cc2ccc(C(F)(F)F)cc2)C(=O)N(C)CC(=O)N[C@@H](CCc2ccc(C(F)(F)F)c(OC)c2)C(=O)N2C[C@H](OCC)C[C@H]2C(=O)NC2(CCC2)C(=O)N(C)[C@@H](C2CCCC2)C(=O)N1C [PP2015]
HRAS/KRAS (ratio of KD value for HRAS to KD value for KRAS) [1]: B (a compound having 3 or more and less than 10 is denoted as B)
NRAS/KRAS (ratio of KD value for NRAS to KD value for KRAS) [2]: A (a compound having 10 or more and less than 20 is denoted as A)

CCCOC[C@H]1C(=O)N[C@@H]([C@@H](C)CC)C(=O)N(C)CC(=O)N(C)[C@H]2C/C=C\CCN(C2=O)[C@@H](Cc2ccc(C(F)(F)F)cc2)C(=O)N(C)CC(=O)N[C@@H](CCc2ccc(C(F)(F)F)c(OC)c2)C(=O)N2C[C@H](OCC)C[C@H]2C(=O)NC2(CCC2)C(=O)N(C)[C@@H](C2CCCC2)C(=O)N(C)[C@H](C(=O)N(C)CC)CC(=O)N1C [PP2016]
HRAS/KRAS (ratio of KD value for HRAS to KD value for KRAS) [1]: A (a compound having 10 or more and less than 20 is denoted as A)
NRAS/KRAS (ratio of KD value for NRAS to KD value for KRAS) [2]: A (a compound having 10 or more and less than 20 is denoted as A)

CCCOC[C@H]1C(=O)N[C@@H]([C@@H](C)CC)C(=O)N(C)CC(=O)N(C)[C@H]2C/C=C\CCN(C2=O)[C@@H](Cc2ccc(C(F)(F)F)cc2)C(=O)N(C)CC(=O)N[C@@H](CCc2ccc(C(F)(F)F)c(OC)c2)C(=O)N2C[C@H](OCC)C[C@H]2C(=O)NC2(CCC2)C(=O)N(C)[C@@H](C2CCCC2)C(=O)N(C)[C@H](C(=O)N(C)CCC)CC(=O)N1C [PP2017]
HRAS/KRAS (ratio of KD value for HRAS to KD value for KRAS) [1]: A (a compound having 10 or more and less than 20 is denoted as A)
NRAS/KRAS (ratio of KD value for NRAS to KD value for KRAS) [2]: A (a compound having 10 or more and less than 20 is denoted as A)

CCCN(C)C(=O)[C@@H]1CC(=O)N(C)[C@@H](CCOC)C(=O)N[C@@H]([C@@H](C)CC)C(=O)N(C)CC(=O)N(C)[C@H]2C/C=C\CCN(C2=O)[C@@H](Cc2ccc(C(F)(F)F)cc2)C(=O)N(C)CC(=O)N[C@@H](CCc2ccc(C(F)(F)F)c(OC)c2)C(=O)N2C[C@H](OCC)C[C@H]2C(=O)NC2(CCC2)C(=O)N(C)[C@@H](C2CCCC2)C(=O)N1C [PP2018]
HRAS/KRAS (ratio of KD value for HRAS to KD value for KRAS) [1]: B (a compound having 3 or more and less than 10 is denoted as B)
NRAS/KRAS (ratio of KD value for NRAS to KD value for KRAS) [2]: A (a compound having 10 or more and less than 20 is denoted as A)

CCCN(C)C(=O)[C@@H]1CC(=O)N(C)[C@@H](C(C)C)C(=O)N[C@@H]([C@@H](C)CC)C(=O)N(C)CC(=O)N(C)[C@H]2C/C=C\CCN(C2=O)[C@@H](Cc2ccc(C(F)(F)F)cc2)C(=O)N(C)CC(=O)N[C@@H](CCc2ccc(C(F)(F)F)c(OC)c2)C(=O)N2C[C@H](OCC)C[C@H]2C(=O)NC2(CCC2)C(=O)N(C)[C@@H](C2CCCC2)C(=O)N1C [PP2020]
HRAS/KRAS (ratio of KD value for HRAS to KD value for KRAS) [1]: A (a compound having 10 or more and less than 20 is denoted as A)
NRAS/KRAS (ratio of KD value for NRAS to KD value for KRAS) [2]: A (a compound having 10 or more and less than 20 is denoted as A)

CCO[C@@H]1C[C@H]2C(=O)NC3(CCC3)C(=O)N(C)[C@@H](C3CCCC3)C(=O)N(C)[C@H](C(=O)N(C)CC)CC(=O)N(C)[C@@H](C3CC3)C(=O)N[C@@H]([C@@H](C)CC)C(=O)N(C)CC(=O)N(C)[C@H]3C/C=C\CCN(C3=O)[C@@H](Cc3ccc(C(F)(F)F)cc3)C(=O)N(C)CC(=O)N[C@@H](CCc3ccc(C(F)(F)F)c(OC)c3)C(=O)N2C1 [PP2021]
HRAS/KRAS (ratio of KD value for HRAS to KD value for KRAS) [1]: B (a compound having 3 or more and less than 10 is denoted as B)
NRAS/KRAS (ratio of KD value for NRAS to KD value for KRAS) [2]: A (a compound having 10 or more and less than 20 is denoted as A)

CCO[C@@H]1C[C@H]2C(=O)NC3(CCC3)C(=O)N(C)[C@@H](C3CCCC3)C(=O)N(C)[C@H](C(=O)N(C)CC)CC(=O)N(C)[C@@H](C3CCC3)C(=O)N[C@@H]([C@@H](C)CC)C(=O)N(C)CC(=O)N(C)[C@H]3C/C=C\CCN(C3=O)[C@@H](Cc3ccc(C(F)(F)F)cc3)C(=O)N(C)CC(=O)N[C@@H](CCc3ccc(C(F)(F)F)c(OC)c3)C(=O)N2C1 [PP2022]
HRAS/KRAS (ratio of KD value for HRAS to KD value for KRAS) [1]: A (a compound having 10 or more and less than 20 is denoted as A)
NRAS/KRAS (ratio of KD value for NRAS to KD value for KRAS) [2]: A (a compound having 10 or more and less than 20 is denoted as A)

CCCN(C)C(=O)[C@@H]1CC(=O)N(C)[C@@H](C2CCC2)C(=O)N[C@@H]([C@@H](C)CC)C(=O)N(C)CC(=O)N(C)[C@H]2C/C=C\CCN(C2=O)[C@@H](Cc2ccc(C(F)(F)F)cc2)C(=O)N(C)CC(=O)N[C@@H](CCc2ccc(C(F)(F)F)c(OC)c2)C(=O)N2C[C@H](OCC)C[C@H]2C(=O)NC2(CCC2)C(=O)N(C)[C@@H](C2CCCC2)C(=O)N1C [PP2023]
HRAS/KRAS (ratio of KD value for HRAS to KD value for KRAS) [1]: B (a compound having 3 or more and less than 10 is denoted as B)
NRAS/KRAS (ratio of KD value for NRAS to KD value for KRAS) [2]: A (a compound having 10 or more and less than 20 is denoted as A)

CCCN(C)C(=O)[C@@H]1CC(=O)N(C)[C@@H](CC(F)F)C(=O)N[C@@H]([C@@H](C)CC)C(=O)N(C)CC(=O)N(C)[C@H]2C/C=C\CCN(C2=O)[C@@H](Cc2ccc(C(F)(F)F)cc2)C(=O)N(C)CC(=O)N[C@@H](CCc2ccc(C(F)(F)F)c(OC)c2)C(=O)N2C[C@@H](C)C[C@H]2C(=O)NC2(CCC2)C(=O)N(C)[C@@H](C2CCCC2)C(=O)N1C [PP2024]
HRAS/KRAS (ratio of KD value for HRAS to KD value for KRAS) [1]: B (a compound having 3 or more and less than 10 is denoted as B)
NRAS/KRAS (ratio of KD value for NRAS to KD value for KRAS) [2]: A (a compound having 10 or more and less than 20 is denoted as A)

CCCN(C)C(=O)[C@@H]1CC(=O)N(C)[C@@H](COCC)C(=O)N[C@@H]([C@@H](C)CC)C(=O)N(C)CC(=O)N(C)[C@H]2C/C=C\CCN(C2=O)[C@@H](Cc2ccc(C(F)(F)F)cc2)C(=O)N(C)CC(=O)N[C@@H](CCc2ccc(C(F)(F)F)c(OC)c2)C(=O)N2C[C@@H](C)C[C@H]2C(=O)NC2(CCC2)C(=O)N(C)[C@@H](C2CCCC2)C(=O)N1C [PP2025]
HRAS/KRAS (ratio of KD value for HRAS to KD value for KRAS) [1]: B (a compound having 3 or more and less than 10 is denoted as B)
NRAS/KRAS (ratio of KD value for NRAS to KD value for KRAS) [2]: A (a compound having 10 or more and less than 20 is denoted as A)

Source: US20250230193A1, “CYCLIC COMPOUND HAVING SELECTIVE KRAS INHIBITORY EFFECT ON HRAS AND NRAS” (CHUGAI SEIYAKU KABUSHIKI KAISHA, priority 2022, published 2025)
